Data published in US8288375B2, “Fungicidal bicyclic pyrazoles” (E.I. du Pont de Nemours and Company, priority 2007, dated 2012).

Assays:
Format in all cases: in vivo
[1] = system: Erysiphe graminis f. sp. tritici; assay: Test A: wheat powdery mildew, test suspension sprayed on wheat seedlings, disease rating; conditions: 200 ppm test suspension; 100 = 100% disease control, 0 = no control
[2] = system: Puccinia recondite f sp. tritici; assay: Test B: wheat leaf rust, test suspension sprayed on wheat seedlings, disease rating; conditions: 200 ppm test suspension;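 note: 200 ppm unless marked * meaning 40 ppm or ** meaning 10 ppm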
Fusarium graminearum = assay: whole plant or invertebrate; conditions: 200 ppm test suspension
Septoria nodorum = assay: Test D: wheat glume blotch, test suspension sprayed on wheat seedlings, disease rating; conditions: 200 ppm test suspension
Septoria tritici = assay: Test E: wheat leaf blotch, test suspension sprayed on wheat seedlings, disease rating; conditions: 200 ppm test suspension;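 note: 200 ppm unless marked * meaning 40 ppm or ** meaning 10 ppm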
[3] = system: Colletotrichum orbiculare; assay: Test F: cucumber Colletotrichum anthracnose, test suspension sprayed on cucumber seedlings, disease rating; conditions: 200 ppm test suspension
Botrytis cinerea = assay: Test H: tomato Botrytis, test suspension sprayed on tomato seedlings, disease rating; conditions: 200 ppm test suspension
Rhizoctonia oryzae = assay: Test I: turf brown patch, test suspension sprayed on creeping bent grass seedlings, disease rating; conditions: 200 ppm test suspension
Phytophthora infestans = assay: whole plant or invertebrate; conditions: 200 ppm test suspension
Plasmopara viticola = assay: Test K: grape downy mildew, grape seedlings inoculated and then sprayed, disease rating; conditions: 200 ppm test suspension
Pythium aphanidermatum = assay: Test L: bluegrass pythium blight, test suspension sprayed on bluegrass seedlings, disease rating; conditions: 200 ppm test suspension;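 note: 200 ppm unless marked * meaning 40 ppm or ** meaning 10 ppm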

Fc1ccc(-c2nn3c(c2-c2ccnc(NC4CCCC4)n2)CCCC3)cc1 [compound 7]
Test A disease control rating [1]: 82% | Test B disease control rating [2]: 99% | Test C disease control rating (Fusarium graminearum): 100% | Test D disease control rating (Septoria nodorum): 98% | Test E disease control rating (Septoria tritici): 99% | Test F disease control rating [3]: 90% | Test H disease control rating (Botrytis cinerea): 82% | Test I disease control rating (Rhizoctonia oryzae): 0% | Test J disease control rating (Phytophthora infestans): 93% | Test K disease control rating (Plasmopara viticola): 0% | Test L disease control rating (Pythium aphanidermatum): 0%

CCC(C)c1ccc(Nc2nccc(-c3c(-c4ccc(F)cc4)nn4c3CCCC4)n2)cc1 (stereo not drawn) [compound 9]
Test A disease control rating [1]: 52% | Test B disease control rating [2]: 97% | Test C disease control rating (Fusarium graminearum): 99% | Test D disease control rating (Septoria nodorum): 92% | Test E disease control rating (Septoria tritici): 0% | Test F disease control rating [3]: 79% | Test H disease control rating (Botrytis cinerea): 81% | Test I disease control rating (Rhizoctonia oryzae): 0% | Test J disease control rating (Phytophthora infestans): 0% | Test K disease control rating (Plasmopara viticola): 0% | Test L disease control rating (Pythium aphanidermatum): 0%

CCC(C)Nc1nccc(-c2c(-c3ccc(F)cc3)nn3c2CCCC3)n1 (stereo not drawn) [compound 20]
Test A disease control rating [1]: 78% | Test B disease control rating [2]: 99% | Test C disease control rating (Fusarium graminearum): 100% | Test D disease control rating (Septoria nodorum): 99% | Test F disease control rating [3]: 88% | Test H disease control rating (Botrytis cinerea): 96% | Test I disease control rating (Rhizoctonia oryzae): 0% | Test J disease control rating (Phytophthora infestans): 99% | Test K disease control rating (Plasmopara viticola): 0% | Test L disease control rating (Pythium aphanidermatum): 100%

Fc1ccc(-c2nn3c(c2-c2ccnc(NC4CC4)n2)CCC3)cc1 [compound 92]
Test A disease control rating [1]: 94% | Test B disease control rating [2]: 99% | Test C disease control rating (Fusarium graminearum): 100% | Test D disease control rating (Septoria nodorum): 99% | Test F disease control rating [3]: 80% | Test H disease control rating (Botrytis cinerea): 90% | Test I disease control rating (Rhizoctonia oryzae): 0% | Test J disease control rating (Phytophthora infestans): 99% | Test K disease control rating (Plasmopara viticola): 0% | Test L disease control rating (Pythium aphanidermatum): 99%

NCCNc1nccc(-c2c(-c3ccc(F)cc3)nn3c2CCCC3)n1 [compound 16]
Test A disease control rating [1]: 20% | Test B disease control rating [2]: 99% | Test C disease control rating (Fusarium graminearum): 99% | Test D disease control rating (Septoria nodorum): 0% | Test F disease control rating [3]: 0% | Test H disease control rating (Botrytis cinerea): 19% | Test I disease control rating (Rhizoctonia oryzae): 0% | Test J disease control rating (Phytophthora infestans): 91% | Test K disease control rating (Plasmopara viticola): 0% | Test L disease control rating (Pythium aphanidermatum): 70%

COc1ccc(-c2nn3c(c2-c2ccnc(NC4CC4)n2)CCC3)cc1 [compound 93]
Test A disease control rating [1]: 0% | Test B disease control rating [2]: 0% | Test C disease control rating (Fusarium graminearum): 99% | Test D disease control rating (Septoria nodorum): 0% | Test F disease control rating [3]: 0% | Test H disease control rating (Botrytis cinerea): 0% | Test I disease control rating (Rhizoctonia oryzae): 0% | Test J disease control rating (Phytophthora infestans): 95% | Test K disease control rating (Plasmopara viticola): 0% | Test L disease control rating (Pythium aphanidermatum): 90%

C#CCNc1nccc(-c2c(-c3ccc(F)cc3)nn3c2CCCC3)n1 [compound 17]
Test A disease control rating [1]: 64% | Test B disease control rating [2]: 99% | Test C disease control rating (Fusarium graminearum): 100% | Test D disease control rating (Septoria nodorum): 98% | Test F disease control rating [3]: 77% | Test H disease control rating (Botrytis cinerea): 97% | Test I disease control rating (Rhizoctonia oryzae): 0% | Test J disease control rating (Phytophthora infestans): 100% | Test K disease control rating (Plasmopara viticola): 86% | Test L disease control rating (Pythium aphanidermatum): 100%

CCCNc1nccc(-c2c(-c3ccc(F)cc3)nn3c2CCCC3)n1 [compound 11]
Test A disease control rating [1]: 93% | Test B disease control rating [2]: 99% | Test C disease control rating (Fusarium graminearum): 100% | Test D disease control rating (Septoria nodorum): 99% | Test E disease control rating (Septoria tritici): 98% | Test F disease control rating [3]: 83% | Test H disease control rating (Botrytis cinerea): 97% | Test I disease control rating (Rhizoctonia oryzae): 44% | Test J disease control rating (Phytophthora infestans): 100% | Test K disease control rating (Plasmopara viticola): 0% | Test L disease control rating (Pythium aphanidermatum): 100%

Nc1nccc(-c2c(-c3ccc(F)cc3)nn3c2CCCC3)n1 [compound 10]
Test A disease control rating [1]: 90% | Test B disease control rating [2]: 99% | Test C disease control rating (Fusarium graminearum): 99% | Test D disease control rating (Septoria nodorum): 87% | Test F disease control rating [3]: 0% | Test H disease control rating (Botrytis cinerea): 63% | Test I disease control rating (Rhizoctonia oryzae): 0% | Test J disease control rating (Phytophthora infestans): 64% | Test K disease control rating (Plasmopara viticola): 0% | Test L disease control rating (Pythium aphanidermatum): 42%

CCC(C)Nc1nccc(-c2c(-c3ccc(F)cc3)nn3c2CCCC3)n1 (stereo not drawn) [compound 19]
Test A disease control rating [1]: 26% | Test B disease control rating [2]: 99% | Test C disease control rating (Fusarium graminearum): 100% | Test D disease control rating (Septoria nodorum): 98% | Test F disease control rating [3]: 66% | Test H disease control rating (Botrytis cinerea): 74% | Test I disease control rating (Rhizoctonia oryzae): 0% | Test J disease control rating (Phytophthora infestans): 31% | Test K disease control rating (Plasmopara viticola): 0% | Test L disease control rating (Pythium aphanidermatum): 93%

CNc1nccc(-c2c(-c3ccc(F)cc3)nn3c2CCCC3)n1 [compound 13]
Test A disease control rating [1]: 98% | Test B disease control rating [2]: 99% | Test C disease control rating (Fusarium graminearum): 100% | Test D disease control rating (Septoria nodorum): 97% | Test F disease control rating [3]: 31% | Test H disease control rating (Botrytis cinerea): 29% | Test I disease control rating (Rhizoctonia oryzae): 77% | Test J disease control rating (Phytophthora infestans): 97% | Test K disease control rating (Plasmopara viticola): 0% | Test L disease control rating (Pythium aphanidermatum): 100%

CCC(C)CNc1nccc(-c2c(-c3ccc(F)cc3)nn3c2CCCC3)n1 (stereo not drawn) [compound 6]
Test A disease control rating [1]: 0% | Test B disease control rating [2]: 73% | Test C disease control rating (Fusarium graminearum): 100% | Test D disease control rating (Septoria nodorum): 0% | Test F disease control rating [3]: 0% | Test H disease control rating (Botrytis cinerea): 0% | Test I disease control rating (Rhizoctonia oryzae): 0% | Test J disease control rating (Phytophthora infestans): 0% | Test K disease control rating (Plasmopara viticola): 0% | Test L disease control rating (Pythium aphanidermatum): 0%

CCC(C)Nc1nccc(-c2c(-c3ccc(F)cc3)nn3c2CCC3)n1 (stereo not drawn) [compound 85]
Test A disease control rating [1]: 0% | Test B disease control rating [2]: 99% | Test C disease control rating (Fusarium graminearum): 100% | Test D disease control rating (Septoria nodorum): 82% | Test F disease control rating [3]: 88% | Test H disease control rating (Botrytis cinerea): 52% | Test I disease control rating (Rhizoctonia oryzae): 16% | Test J disease control rating (Phytophthora infestans): 67% | Test K disease control rating (Plasmopara viticola): 0% | Test L disease control rating (Pythium aphanidermatum): 100%

CCNc1nccc(-c2c(-c3ccc(F)cc3)nn3c2CCCC3)n1 [compound 18]
Test A disease control rating [1]: 96% | Test B disease control rating [2]: 100% | Test C disease control rating (Fusarium graminearum): 100% | Test D disease control rating (Septoria nodorum): 97% | Test F disease control rating [3]: 98% | Test H disease control rating (Botrytis cinerea): 74% | Test I disease control rating (Rhizoctonia oryzae): 0% | Test J disease control rating (Phytophthora infestans): 99% | Test K disease control rating (Plasmopara viticola): 0% | Test L disease control rating (Pythium aphanidermatum): 100%

C=CCNc1nccc(-c2c(-c3ccc(F)cc3)nn3c2CCC3)n1 [compound 95]
Test A disease control rating [1]: 68% | Test B disease control rating [2]: 100% | Test C disease control rating (Fusarium graminearum): 100% | Test D disease control rating (Septoria nodorum): 99% | Test F disease control rating [3]: 21% | Test H disease control rating (Botrytis cinerea): 87% | Test I disease control rating (Rhizoctonia oryzae): 0% | Test J disease control rating (Phytophthora infestans): 99% | Test K disease control rating (Plasmopara viticola): 0% | Test L disease control rating (Pythium aphanidermatum): 95%

Fc1ccc(-c2nn3c(c2-c2ccnc(NC4CC4)n2)CCC3)c(F)c1 [compound 94]
Test A disease control rating [1]: 82% | Test B disease control rating [2]: 97% | Test C disease control rating (Fusarium graminearum): 100% | Test D disease control rating (Septoria nodorum): 98% | Test F disease control rating [3]: 24% | Test H disease control rating (Botrytis cinerea): 96% | Test I disease control rating (Rhizoctonia oryzae): 16% | Test J disease control rating (Phytophthora infestans): 99% | Test K disease control rating (Plasmopara viticola): 0% | Test L disease control rating (Pythium aphanidermatum): 99%

C=CCNc1nccc(-c2c(-c3ccc(F)cc3)nn3c2CCCC3)n1 [compound 15]
Test A disease control rating [1]: 86% | Test B disease control rating [2]: 99% | Test C disease control rating (Fusarium graminearum): 100% | Test D disease control rating (Septoria nodorum): 98% | Test F disease control rating [3]: 17% | Test H disease control rating (Botrytis cinerea): 92% | Test I disease control rating (Rhizoctonia oryzae): 0% | Test J disease control rating (Phytophthora infestans): 97% | Test K disease control rating (Plasmopara viticola): 0% | Test L disease control rating (Pythium aphanidermatum): 100%

COCC(C)Nc1nccc(-c2c(-c3ccc(F)cc3)nn3c2CCC3)n1 (stereo not drawn) [compound 84]
Test A disease control rating [1]: 60% | Test B disease control rating [2]: 99% | Test C disease control rating (Fusarium graminearum): 100% | Test D disease control rating (Septoria nodorum): 99% | Test F disease control rating [3]: 98% | Test H disease control rating (Botrytis cinerea): 52% | Test I disease control rating (Rhizoctonia oryzae): 16% | Test J disease control rating (Phytophthora infestans): 93% | Test K disease control rating (Plasmopara viticola): 0% | Test L disease control rating (Pythium aphanidermatum): 100%

CC(C)(C)CNc1nccc(-c2c(-c3ccc(F)cc3)nn3c2CCCC3)n1 [compound 3]
Test A disease control rating [1]: 47% | Test B disease control rating [2]: 91% | Test C disease control rating (Fusarium graminearum): 99% | Test D disease control rating (Septoria nodorum): 0% | Test E disease control rating (Septoria tritici): 72% | Test F disease control rating [3]: 0% | Test H disease control rating (Botrytis cinerea): 0% | Test I disease control rating (Rhizoctonia oryzae): 0% | Test J disease control rating (Phytophthora infestans): 0% | Test K disease control rating (Plasmopara viticola): 0% | Test L disease control rating (Pythium aphanidermatum): 0%

CNc1nccc(-c2c(-c3ccc(F)cc3)nn3c2CCC3)n1 [compound 90]
Test A disease control rating [1]: 96% | Test B disease control rating [2]: 99% | Test C disease control rating (Fusarium graminearum): 100% | Test D disease control rating (Septoria nodorum): 100% | Test F disease control rating [3]: 17% | Test H disease control rating (Botrytis cinerea): 0% | Test I disease control rating (Rhizoctonia oryzae): 0% | Test J disease control rating (Phytophthora infestans): 99% | Test K disease control rating (Plasmopara viticola): 0% | Test L disease control rating (Pythium aphanidermatum): 97%
